PMC11240139, “Exploring the antitumor potential of novel quinoline derivatives via tubulin polymerization inhibition in breast cancer; design, synthesis and molecular docking” (RSC Advances, 2024)

Tests used:
Assay type in all cases: cell-based
[1] = tested on: SN12C (renal cancer); assay: NCI-60 SRB cytotoxicity screen; details: Homo sapiens, single dose 10 μM, read-out: growth inhibition (GI%)
[2] = tested on: OVCAR-3 (ovarian cancer); assay: NCI-60 SRB cytotoxicity screen; details: Homo sapiens; OVCAR-3, single dose 10 μM; read-out: growth inhibition (GI%)
[3] = tested on: SK-MEL-5 (melanoma); assay: NCI-60 SRB cytotoxicity screen; details: Homo sapiens; SK-MEL-5, single dose 10 μM; read-out: growth inhibition (GI%)
[4] = tested on: HCC-2998 (colon cancer); assay: NCI-60 SRB cytotoxicity screen; details: Homo sapiens; HCC-2998, single dose 10 μM; read-out: growth inhibition (GI%)
[5] = tested on: SR (leukemia); assay: NCI-60 SRB cytotoxicity screen; details: single dose 10 μM, read-out: growth inhibition (GI%)
[6] = tested on: CAKI-1 (renal cancer); assay: NCI-60 SRB cytotoxicity screen; details: Homo sapiens; CAKI-1, single dose 10 μM; read-out: growth inhibition (GI%)
[7] = tested on: DU-145 (prostate cancer); assay: NCI-60 SRB cytotoxicity screen; details: Homo sapiens; DU-145, single dose 10 μM; read-out: growth inhibition (GI%)
[8] = tested on: SNB-19 (CNS cancer); assay: NCI-60 SRB cytotoxicity screen; details: Homo sapiens; SNB-19, single dose 10 μM; read-out: growth inhibition (GI%)
[9] = tested on: M14 (melanoma); assay: NCI-60 SRB cytotoxicity screen; details: Homo sapiens; M14, single dose 10 μM; read-out: growth inhibition (GI%)
[10] = tested on: OVCAR-4 (ovarian cancer); assay: NCI-60 SRB cytotoxicity screen; details: Homo sapiens; OVCAR-4, single dose 10 μM; read-out: growth inhibition (GI%)
[11] = tested on: LOX IMVI (melanoma); assay: NCI-60 SRB cytotoxicity screen; details: Homo sapiens, single dose 10 μM, read-out: growth inhibition (GI%)
[12] = tested on: COLO 205 (colon cancer); assay: NCI-60 SRB cytotoxicity screen; details: Homo sapiens; COLO 205, single dose 10 μM; read-out: growth inhibition (GI%)
[13] = tested on: MDA-MB-468 (breast cancer); assay: NCI-60 SRB cytotoxicity screen; details: Homo sapiens; MDA-MB-468, single dose 10 μM; read-out: growth inhibition (GI%)
Protocol: (§1) The cytotoxic activity of the synthesized quinoline derivatives was determined by the national cancer institute (NCI, Bethesda, Maryland, USA) against 60 different cancer cell lines at a single high dose (10^−5 M) in the full NCI 60 cell panel using the sulforhodamine B assay for cell viability evaluation. In summary, 5 × 10^3 cells were in 96-well plate and incubated in complete media for 24 h. Cells were treated with 100 μL of media containing each newly synthesized compound. After drug exposure, cells were fixed by replacing media with 150 μL of 10% TCA and incubated at 4 °C for 1 h. The TCA solution was removed, and the cells were washed 5 times with distilled water. Aliquots of 70 μL SRB solution (0.4% w/v) were added and incubated in a dark place at room temperature for 10 min. The plates were washed 3 times with 1% acetic acid and allowed to air-dry overnight. Then, 150 μL of TRIS (10 mM) was added to dissolve protein-bound SRB stain. The absorbance was measured at 540 nm.% Cytotoxicity = [1 − (AVx/AVNC)] × 100where AVx denotes the average absorbance of the sample well and AVNC denotes the average absorbance of the negative control.
The methodology of the NCI anticancer screening has been described in details at (http://www.dtp.nci.nih.gov). The anticancer assay was performed in full NCI 60 cell lines derived from nine tumor subpanels, including leukemia, lung, colon, CNS, melanoma, ovarian, renal, prostate, and breast cancer cell lines.
The cell lines were first cultured for 48 h, after being exposed to a single dosage of the compound. Using the protein-binding dye sulforhodamine B dye, cell proliferation and viability were evaluated (SRB assay). The results were presented for each chemical as GI%. Compound that met NCI criteria for substantial activity were further evaluated using a five-dose experiment. The NCI60 cell lines were treated with the chemicals in this assay at five different concentration levels (0.01, 0.1, 1, 10, and 100 μM).

[14] = tested on: RXF 393 (renal cancer); assay: NCI-60 SRB cytotoxicity screen; details: Homo sapiens; RXF 393, single dose 10 μM; read-out: growth inhibition (GI%)
[15] = tested on: OVCAR-5 (ovarian cancer); assay: NCI-60 SRB cytotoxicity screen; details: Homo sapiens; OVCAR-5, single dose 10 μM; read-out: growth inhibition (GI%)
[16] = tested on: 60 cancer cell lines (NCI); assay: NCI-60 single-dose screen, overall verdict over the panel; details: single dose 10 μM, whole panel
Protocol: as §1

[17] = tested on: MDA-MB-435 (melanoma); assay: NCI-60 SRB cytotoxicity screen; details: Homo sapiens, MDA-MB-435, read-out: growth inhibition (GI%);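 further: growth inhibition in percent at a single 10 µM dose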
[18] = tested on: U251 (CNS cancer); assay: NCI-60 SRB cytotoxicity screen; details: Homo sapiens, U-251; U251, single dose 10 μM; read-out: growth inhibition (GI%)
[19] = tested on: TK-10 (renal cancer); assay: NCI-60 SRB cytotoxicity screen; details: Homo sapiens; TK-10, single dose 10 μM; read-out: growth inhibition (GI%)
[20] = tested on: NCI-H322M (non-small cell lung cancer); assay: NCI-60 SRB cytotoxicity screen; details: Homo sapiens, single dose 10 μM, read-out: growth inhibition (GI%)
[21] = tested on: SK-MEL-2 (melanoma); assay: NCI-60 SRB cytotoxicity screen; details: Homo sapiens; SK-MEL-2, single dose 10 μM; read-out: growth inhibition (GI%)
[22] = tested on: HCT-116 (colon cancer); assay: NCI-60 SRB cytotoxicity screen; details: Homo sapiens; HCT-116, single dose 10 μM; read-out: growth inhibition (GI%)
[23] = tested on: HOP-92 (non-small cell lung cancer); assay: NCI-60 SRB cytotoxicity screen; details: Homo sapiens; HOP-92, single dose 10 μM; read-out: growth inhibition (GI%)
[24] = tested on: SF-268 (CNS cancer); assay: NCI-60 SRB cytotoxicity screen; details: Homo sapiens; SF-268, single dose 10 μM; read-out: growth inhibition (GI%)
[25] = tested on: SW-620 (colon cancer); assay: NCI-60 SRB cytotoxicity screen; details: Homo sapiens; SW-620, single dose 10 μM; read-out: growth inhibition (GI%)

| SMILES | inhibition at 10 µM [1] [%] | inhibition at 10 µM [2] [%] | inhibition at 10 µM [3] [%] | inhibition at 10 µM [4] [%] | inhibition at 10 µM [6] [%] | inhibition at 10 µM [7] [%] | inhibition at 10 µM [8] [%] | inhibition at 10 µM [9] [%] | inhibition at 10 µM [10] [%] | inhibition at 10 µM [11] [%] | inhibition at 10 µM [12] [%] | inhibition at 10 µM [13] [%] | inhibition at 10 µM [14] [%] | inhibition at 10 µM [15] [%] | cytotoxic activity over the cell lines (in words) [16] | inhibition at 10 µM [17] [%] | inhibition at 10 µM [18] [%] | inhibition at 10 µM [19] [%] | inhibition at 10 µM [20] [%] | inhibition at 10 µM [21] [%] | further results |
| --- | --- | --- | --- | --- | --- | --- | --- | --- | --- | --- | --- | --- | --- | --- | --- | --- | --- | --- | --- | --- | --- |
| CCc1cccc2cc(-c3cc(-c4ccc(OC)c(OC)c4)[nH]c(=S)c3C#N)c(Cl)nc12 [Compound 5b, 4-(2-Chloro-8-ethylquinolin-3-yl)-6-(3,4-dimethoxyphenyl)-2-thioxo-1,2-dihydropyridine-3-carbonitrile] | 21.7 | < 10 | 21 | < 10 | 45.8 | 20.2 | 22.6 | < 10 | 22.4 | < 10 | < 10 | 22.8 | 24.6 | < 10 | slight cytotoxic activity | < 10 | 13.7 | < 10 | < 10 | < 10 | inhibition at 10 µM [5]: < 10%; inhibition at 10 µM [22]: < 10%; inhibition at 10 µM [23]: 47.4%; inhibition at 10 µM [24]: 32.2%; inhibition at 10 µM [25]: < 10% |
| CCc1cccc2cc(-c3cc(-c4ccc(Br)cc4)[nH]c(=O)c3C#N)c(Cl)nc12 [Compound 4e, 6-(4-Bromophenyl)-4-(2-chloro-8-ethylquinolin-3-yl)-2-oxo-1,2-dihydropyridine-3-carbonitrile] | < 10 | < 10 | 13 | < 10 | 17.6 | < 10 | < 10 | < 10 | 10.8 | < 10 | < 10 | < 10 | < 10 | < 10 | mild cytotoxic activity | < 10 | < 10 | < 10 | < 10 | < 10 | inhibition at 10 µM [22]: < 10%; inhibition at 10 µM [23]: < 10%; inhibition at 10 µM [24]: < 10%; inhibition at 10 µM [25]: < 10% |
| CCc1cccc2cc(-c3cc(-c4ccc(OC)cc4)[nH]c(=S)c3C#N)c(Cl)nc12 [Compound 5a, 4-(2-Chloro-8-ethylquinolin-3-yl)-6-(4-methoxyphenyl)-2-thioxo-1,2-dihydropyridine-3-carbonitrile] | 10.3 | < 10 | < 10 | < 10 | 44.7 | < 10 | 13.2 | < 10 | 24.5 | < 10 | < 10 | 18.7 | 20.6 | < 10 | slight cytotoxic activity | < 10 | < 10 | < 10 | 17.6 | < 10 | inhibition at 10 µM [5]: 11.6%; inhibition at 10 µM [22]: 14.8%; inhibition at 10 µM [23]: 36.2%; inhibition at 10 µM [24]: 23.1%; inhibition at 10 µM [25]: < 10% |
